Values quoted from earlier work, collected in article PMC6777988 (ACS infectious diseases, 2018).

Columns and labels:
[1] = tested on: C. parvum; conditions: combined with partial CpCDPK1 siRNA knockdown
[2] = tested on: Cryptosporidium; conditions: immunocompromised patients and malnourished children

Row | SMILES | effect on proliferation of C. parvum parasites [1] | efficacy in patients [2]
1 | CCOc1ccc2cc(-c3nn(CC4CCN(C)CC4)c4ncnc(N)c34)ccc2c1 [Compound 1294] | further inhibitory effects | –
2 | CC(=O)Oc1ccccc1C(=O)Nc1ncc([N+](=O)[O-])s1 [Nitazoxanide, nitazoxanide] | – | minimal efficacy
3 | CCOc1ccc2cc(-c3nn(C(C)(C)C)c(N)c3C(N)=O)cnc2c1 [Compound 1517] | further inhibitory effects | –
